# Where “and” joins values, the source holds several entries; their conditions need not be identical. Equal entries are not always repeated.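 Compound exposure: 48 hours, 5 concentrations, 96-well plates. GI50 is the concentration that inhibits growth by half. TGI is the concentration that stops growth completely.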 Calls of active or inactive are those of the source. No stated cut-off is given here; in the data, active means GI50 below about 0.43 µM; inactive means the rest.
# What was measured:
# Test in all cases: inhibition of tumour cell growth, NCI panel, 48 h
# [1] = test system: OVCAR-4 ovarian
# [2] = test system: SF-539 CNS
# [3] = test system: SNB-19 CNS
# [4] = test system: RXF 393 renal
# [5] = test system: OVCAR-3 ovarian
# [6] = test system: TK-10 renal
# [7] = test system: DMS 273 small cell lung
# [8] = test system: NCI-H460 lung
# [9] = test system: SK-OV-3 ovarian
# [10] = test system: EKVX NSCLC
# [11] = test system: CAKI-1 renal
# [12] = test system: UACC-257 melanoma
# [13] = test system: OVCAR-5 ovarian
# [14] = test system: HT29 colon
# [15] = test system: SNB-75 CNS
# [16] = test system: LOX IMVI melanoma
# [17] = test system: UACC-62 melanoma
# [18] = test system: DLD-1 colon
# [19] = test system: NCI-H226 lung
# [20] = test system: KM20L2 colon
# [21] = test system: MOLT-4 leukemia
# [22] = test system: NCI-H23 lung
# [23] = test system: NCI-H522 lung
# [24] = test system: HOP-18 NSCLC
# [25] = test system: HCT-15 colon
# [26] = test system: SF-268 CNS
# [27] = test system: ACHN renal
# [28] = test system: A549 NSCLC
# [29] = test system: M19-MEL melanoma
# [30] = test system: IGROV1 ovarian
# [31] = test system: SF-295 CNS
# [32] = test system: HL-60(TB) leukemia
# [33] = test system: SNB-78 CNS
# [34] = test system: SK-MEL-2 melanoma
# [35] = test system: COLO 205 colon
# [36] = test system: LXFL 529 NSCLC
# [37] = test system: HOP-62 NSCLC
# [38] = test system: OVCAR-8 ovarian
# [39] = test system: MALME-3M melanoma
# [40] = test system: DMS 114 small cell lung
# [41] = test system: UO-31 renal
# [42] = test system: SK-MEL-28 melanoma
# [43] = test system: K-562 leukemia
# [44] = test system: SN12C renal
# [45] = test system: U251 CNS
# [46] = test system: SW-620 colon
# [47] = test system: HOP-92 NSCLC
# [48] = test system: KM12 colon
# [49] = test system: HCC-2998 colon
# [50] = test system: CCRF-CEM leukemia
# [51] = test system: XF 498 CNS
# [52] = test system: HCT-116 colon
# [53] = test system: 786-0 renal
# [54] = test system: A498 renal
# [55] = test system: SK-MEL-5 melanoma
# [56] = test system: MCF7 breast
# [57] = test system: HS 578T breast
# [58] = test system: BT-549 breast
# [59] = test system: RPMI-8226 leukemia
# [60] = test system: MDA-MB-231 breast
# [61] = test system: MDA-MB-435
# [62] = test system: M14 melanoma
# [63] = test system: NCI/ADR-RES ovarian
# [64] = test system: PC-3 prostate
# [65] = test system: MDA-N
# [66] = test system: DU-145 prostate
# [67] = test system: SR leukemia
# [68] = test system: T-47D breast
structure (smiles),measurement,setting,value
CCCCCCCCCCCC(=O)C1=C(O)C(O)CCC1=O (stereo not given),TGI,[1],90.8 µM
same,TGI,[2],45.4 µM
same,TGI,[3],49.4 µM
same,TGI,[4],> 100 µM
same,TGI,[5],38.3 µM
same,TGI,[6],49 µM
same,TGI,[7],21.3 µM
same,TGI,[8],44.4 µM
same,TGI,[9],67.2 µM
same,TGI,[10],34.1 µM
same,TGI,[11],70.6 µM
same,TGI,[12],37.2 µM
same,TGI,[13],80.2 µM
same,TGI,[14],30.1 µM
same,TGI,[15],67.7 µM
same,TGI,[16],28.2 µM
same,TGI,[17],25.5 µM
same,TGI,[18],> 100 µM
same,TGI,[19],70.3 µM
same,TGI,[20],24.9 µM
same,TGI,[21],60.3 µM
same,TGI,[22],20 µM
same,TGI,[23],33.1 µM
same,TGI,[24],86.5 µM
same,TGI,[25],27.3 µM
same,TGI,[26],> 100 µM
same,TGI,[27],56.9 µM
same,TGI,[28],> 100 µM
same,TGI,[29],44.6 µM
same,TGI,[30],82.6 µM
same,TGI,[31],30.5 µM
same,TGI,[32],38.8 µM
same,TGI,[33],55.8 µM
same,TGI,[34],25 µM
same,TGI,[35],28.9 µM
same,TGI,[36],53.9 µM
same,TGI,[37],40.4 µM
same,TGI,[38],36.6 µM
same,TGI,[39],32 µM
same,TGI,[40],50.5 µM
same,TGI,[41],64.9 µM
same,TGI,[42],38.6 µM
same,TGI,[43],43 µM
same,TGI,[44],78.3 µM
same,TGI,[45],55.5 µM
same,TGI,[46],60 µM
same,TGI,[47],48.3 µM
same,TGI,[48],43.2 µM
same,TGI,[49],52.9 µM
same,TGI,[50],40.6 µM
same,TGI,[51],26.4 µM
same,TGI,[52],38.5 µM
same,TGI,[53],> 100 µM
same,TGI,[54],43.2 µM
CCCCCc1c(CCCC)c(=O)[nH]c2cc(CNCC(OC)OC)ccc12,TGI,[1],30.9 µM
same,TGI,[2],28.4 µM
same,TGI,[55],21 µM
same,TGI,[56],27.8 µM
same,TGI,[3],26.2 µM
same,TGI,[57],38.7 µM
same,TGI,[4],27.1 µM
same,TGI,[5],32.3 µM
same,TGI,[6],28.7 µM
same,TGI,[8],23.9 µM
same,TGI,[9],32.3 µM
same,TGI,[10],31.3 µM
same,TGI,[11],24.6 µM
same,TGI,[12],16.2 µM
same,TGI,[58],28 µM
same,TGI,[59],13.8 µM
same,TGI,[13],28 µM
same,TGI,[14],12.4 µM
same,TGI,[15],29.3 µM
same,TGI,[16],18.8 µM
same,TGI,[17],12.2 µM
same,TGI,[60],29.3 µM
same,TGI,[19],40.6 µM
same,TGI,[61],24 µM
same,TGI,[21],20.6 µM
same,TGI,[22],32.8 µM
same,TGI,[23],34.6 µM
same,TGI,[62],8.1 µM
same,TGI,[63],26.9 µM
same,TGI,[25],23.8 µM
same,TGI,[26],32.6 µM
same,TGI,[64],25.5 µM
same,TGI,[27],27.8 µM
same,TGI,[28],25.7 µM
same,TGI,[65],24 µM
same,TGI,[30],29.6 µM
same,TGI,[66],28 µM
same,TGI,[31],32.2 µM
same,TGI,[32],43.9 µM
same,TGI,[34],28.4 µM
same,TGI,[35],6.24 µM
same,TGI,[37],33.5 µM
same,TGI,[38],32 µM
same,TGI,[39],7.83 µM
same,TGI,[41],26.4 µM
same,TGI,[42],12.2 µM
same,TGI,[43],5.63 µM
same,TGI,[44],28.1 µM
same,TGI,[45],23.9 µM
same,TGI,[46],16.3 µM
same,TGI,[47],16.5 µM
same,TGI,[67],17.3 µM
same,TGI,[48],26.4 µM
same,TGI,[49],7.62 µM
same,TGI,[50],19.2 µM
same,TGI,[52],18.9 µM
same,TGI,[53],18.1 µM
same,TGI,[68],31.8 µM
same,TGI,[54],28.9 µM
CCOC(=O)c1sc2c(C(=O)OCC)n3ccccc3c2c1N,GI50,[2],22.3 µM
same,TGI,[2],75.4 µM
same,GI50,[3],23.9 µM
same,TGI,[3],90.9 µM and 65.5 µM
same,TGI,[4],50 µM
same,GI50,[10],70 µM
same,outcome,[59],inactive
same,TGI,[15],99.1 µM
same,outcome,[21],inactive
same,GI50,[22],74.2 µM
same,GI50,[23],24.3 µM
same,TGI,[23],63 µM and 68 µM
same,GI50,[26],36.6 µM
same,GI50,[27],89.4 µM
same,GI50,[33],27.3 µM
same,GI50,[37],22.5 µM
same,TGI,[37],57.3 µM and 70.7 µM
same,GI50,[38],52.1 µM
same,GI50,[40],47.5 µM
same,GI50,[41],49.2 µM
same,TGI,[41],67.1 µM
same,GI50,[44],73.5 µM
same,GI50,[47],23.8 µM
same,TGI,[47],55.2 µM
same,outcome,[67],inactive
same,GI50,[51],33.9 µM
same,TGI,[51],48 µM
same,GI50,[52],35.9 µM
COc1cccc(C2c3cc4c(cc3OC(N3CCOCC3)C2C)OCO4)c1O (stereo not given),TGI,[1],> 100 µM
same,TGI,[2],9.66 µM
same,TGI,[55],18.4 µM
same,TGI,[56],> 44.2 µM
same,TGI,[3],36.4 µM
same,TGI,[57],6.39 µM
same,TGI,[4],9.43 µM
same,TGI,[5],30.8 µM
same,TGI,[6],83.6 µM
same,TGI,[8],20.4 µM
same,TGI,[9],75.6 µM
same,TGI,[10],98.9 µM
same,TGI,[11],18.6 µM
same,TGI,[12],> 83.3 µM
same,TGI,[58],76.1 µM
same,TGI,[59],19.8 µM
same,TGI,[13],60 µM
same,TGI,[14],28.8 µM
same,TGI,[15],> 100 µM
same,TGI,[16],25 µM
same,TGI,[17],40.2 µM
same,TGI,[60],47.5 µM
same,TGI,[19],20.9 µM
same,TGI,[61],6.57 µM
same,TGI,[21],42.2 µM
same,TGI,[22],52.6 µM
same,TGI,[23],8.39 µM
same,TGI,[62],25 µM
same,TGI,[63],19.1 µM
same,TGI,[25],27.9 µM
same,TGI,[26],> 79.1 µM
same,TGI,[64],> 58.6 µM
same,TGI,[27],72 µM
same,TGI,[28],66.5 µM
same,TGI,[65],4.58 µM
same,TGI,[30],53.7 µM
same,TGI,[66],26.6 µM
same,TGI,[31],42.9 µM
same,TGI,[32],6.69 µM
same,TGI,[34],40.7 µM
same,TGI,[35],22.7 µM
same,TGI,[37],26 µM
same,TGI,[38],60.1 µM
same,TGI,[39],> 78.6 µM
same,TGI,[41],54.3 µM
same,TGI,[42],> 61.8 µM
same,TGI,[43],38.1 µM
same,TGI,[44],60.5 µM
same,TGI,[45],12.7 µM
same,TGI,[46],> 75.2 µM
same,TGI,[47],71.4 µM
same,TGI,[67],30.2 µM
same,TGI,[48],46.9 µM
same,TGI,[49],21.9 µM
same,TGI,[50],35.3 µM
same,TGI,[52],16.6 µM
same,TGI,[53],53.6 µM
same,TGI,[68],36.4 µM
same,TGI,[54],20.8 µM

# From PubChem BioAssay (NCI)
